Starred links: 1 amine or outer side, 2 acyl side, 3 side chain; linkers in the order of their positions; H or OH if unused. Positions of bridges follow the written chain, without caps; N, C: chain ends. Non-standard residues stand in square brackets, D forms with d. Residues, ends and D or L forms follow the SMILES beside them. Triazole bridges read from a SMILES are 1,4-linked. Aha = [N-]=[N+]=NCC[C@H](N)C(=O)O; Pra = C#CC[C@H](N)C(=O)O; Dap = NC[C@H](N)C(=O)O; CH2 = C([*:1])[*:2]
Tests used:
[1] = Stability in human serum assessed as parent compound remaining incubated at 24 hrs by RP-HPLC analysis; assay type: ADME, cell-free; conditions: human serum, read-out: Stability
[2] = molecular target: Neuronal acetylcholine receptor; alpha9/alpha10 (Homo sapiens) (UniProt Q9UGM1+Q9GZZ6); experiment: Antagonist activity at human alpha9alpha10 nAChR expressed in acetylcholine-induced Xenopus laevis oocytes assessed as inhibition of acetylcholine-induced current at 10 nM at -80 mV holding potential incubated for 5 mins by two electrode voltage-clamp assay relative to control; assay type: cell-based; conditions: Oocyte

SMILES	remaining at 24 h [1] [%]	inhibition [2] [%]	inhibition ([2]; filed as antagonist) [%]
CC[C@H](C)[C@@H]1NC(=O)[C@H](CC(=O)O)NC(=O)[C@@H]2CCCN2C(=O)[C@H](CC(N)=O)NC(=O)[C@H](CC(N)=O)NC(=O)[C@H](C(C)C)NC(=O)[C@H](CO)NC(=O)[C@@H]2CSCSC[C@@H]3NC(=O)CNC(=O)[C@@H](N)CCC(=O)NC[C@@H](C(N)=O)NC(=O)[C@H](CSSC[C@H](NC3=O)C(=O)N[C@@H](CN)C(=O)N[C@@H](Cc3cnc[nH]3)C(=O)N3CCC[C@H]3C(=O)N[C@@H](C)C(=O)N2)NC1=O (H-EGCC[Dap]HPACSVNNPDIC[Dap]-NH2; lactam 1-18; linker 3-9 via CH2; disulfide 4-17)	57.3	–	–
CC[C@H](C)[C@@H]1NC(=O)[C@H](CC(=O)O)NC(=O)[C@@H]2CCCN2C(=O)[C@H](CC(N)=O)NC(=O)[C@H](CC(N)=O)NC(=O)[C@H](C(C)C)NC(=O)[C@H](CO)NC(=O)[C@@H]2CSSC[C@H](NC(=O)CN)C(=O)N[C@@H](CCn3cc(nn3)C[C@@H](C(N)=O)NC1=O)C(=O)N[C@@H](CN)C(=O)N[C@@H](Cc1cnc[nH]1)C(=O)N1CCC[C@H]1C(=O)N[C@@H](C)C(=O)N2 (H-GC[Aha][Dap]HPACSVNNPDI[Pra]-NH2; disulfide 2-8; triazole 3-16)	–	< 15	–
CC[C@H](C)[C@@H]1NC(=O)[C@H](CC(=O)O)NC(=O)[C@@H]2CCCN2C(=O)[C@H](CC(N)=O)NC(=O)[C@H](CC(N)=O)NC(=O)[C@H](C(C)C)NC(=O)[C@H](CO)NC(=O)[C@@H]2CSSC[C@H](NC(=O)CN)C(=O)N[C@@H](Cc3cn(nn3)CC[C@@H](C(N)=O)NC1=O)C(=O)N[C@@H](CN)C(=O)N[C@@H](Cc1cnc[nH]1)C(=O)N1CCC[C@H]1C(=O)N[C@@H](C)C(=O)N2 (H-GC[Pra][Dap]HPACSVNNPDI[Aha]-NH2; disulfide 2-8; triazole 3-16)	–	< 15	–
CC[C@H](C)[C@@H]1NC(=O)[C@H](CC(=O)O)NC(=O)[C@@H]2CCCN2C(=O)[C@H](CC(N)=O)NC(=O)[C@H](CC(N)=O)NC(=O)[C@H](C(C)C)NC(=O)[C@H](CO)NC(=O)[C@@H]2CSSC[C@@H]3NC(=O)CNC(=O)CNC(=O)[C@H](C)NC(=O)CNC(=O)[C@H](C)NC(=O)[C@H](C)NC(=O)CNC(=O)CNC(=O)[C@H](CSSC[C@H](NC3=O)C(=O)N[C@@H](CN)C(=O)N[C@@H](Cc3cnc[nH]3)C(=O)N3CCC[C@H]3C(=O)N[C@@H](C)C(=O)N2)NC1=O (HELM PEPTIDE1{A.A.G.A.G.G.C.C.[NC[C@H](N[*:1])C(=O)[*:2]].H.P.A.C.S.V.N.N.P.D.I.C.G.G}$PEPTIDE1,PEPTIDE1,7:R3-13:R3|PEPTIDE1,PEPTIDE1,8:R3-21:R3|PEPTIDE1,PEPTIDE1,1:R1-23:R2$$$V2.0)	61.7	–	> 85
CC[C@H](C)[C@@H]1NC(=O)[C@H](CC(=O)O)NC(=O)[C@@H]2CCCN2C(=O)[C@H](CC(N)=O)NC(=O)[C@H](CC(N)=O)NC(=O)[C@H](C(C)C)NC(=O)[C@H](CO)NC(=O)[C@@H]2CSSC[C@@H]3NC(=O)CNC(=O)CNC(=O)[C@H](C)NC(=O)[C@H](C)NC(=O)CNC(=O)CNC(=O)[C@H](CSSC[C@H](NC3=O)C(=O)N[C@@H](CN)C(=O)N[C@@H](Cc3cnc[nH]3)C(=O)N3CCC[C@H]3C(=O)N[C@@H](C)C(=O)N2)NC1=O (HELM PEPTIDE1{A.A.G.G.C.C.[NC[C@H](N[*:1])C(=O)[*:2]].H.P.A.C.S.V.N.N.P.D.I.C.G.G}$PEPTIDE1,PEPTIDE1,5:R3-11:R3|PEPTIDE1,PEPTIDE1,6:R3-19:R3|PEPTIDE1,PEPTIDE1,1:R1-21:R2$$$V2.0)	< 40	20	–
CC[C@H](C)[C@@H]1NC(=O)[C@H](CC(=O)O)NC(=O)[C@@H]2CCCN2C(=O)[C@H](CC(N)=O)NC(=O)[C@H](CC(N)=O)NC(=O)[C@H](C(C)C)NC(=O)[C@H](CO)NC(=O)[C@@H]2CSSC[C@@H]3NC(=O)CNC(=O)CNC(=O)[C@H](C)NC(=O)[C@H](C)NC(=O)CNC(=O)[C@H](CSSC[C@H](NC3=O)C(=O)N[C@@H](CN)C(=O)N[C@@H](Cc3cnc[nH]3)C(=O)N3CCC[C@H]3C(=O)N[C@@H](C)C(=O)N2)NC1=O (HELM PEPTIDE1{A.A.G.G.C.C.[NC[C@H](N[*:1])C(=O)[*:2]].H.P.A.C.S.V.N.N.P.D.I.C.G}$PEPTIDE1,PEPTIDE1,5:R3-11:R3|PEPTIDE1,PEPTIDE1,6:R3-19:R3|PEPTIDE1,PEPTIDE1,1:R1-20:R2$$$V2.0)	< 40	< 10	–
CC[C@H](C)[C@@H]1NC(=O)[C@H](CC(=O)O)NC(=O)[C@@H]2CCCN2C(=O)[C@H](CC(N)=O)NC(=O)[C@H](CC(N)=O)NC(=O)[C@H](C(C)C)NC(=O)[C@H](CO)NC(=O)[C@@H]2CSSC[C@@H]3NC(=O)CNC(=O)CNC(=O)CNC(=O)[C@H](C)NC(=O)[C@H](C)NC(=O)CNC(=O)CNC(=O)[C@H](CSSC[C@H](NC3=O)C(=O)N[C@@H](CN)C(=O)N[C@@H](Cc3cnc[nH]3)C(=O)N3CCC[C@H]3C(=O)N[C@@H](C)C(=O)N2)NC1=O (HELM PEPTIDE1{A.A.G.G.G.C.C.[NC[C@H](N[*:1])C(=O)[*:2]].H.P.A.C.S.V.N.N.P.D.I.C.G.G}$PEPTIDE1,PEPTIDE1,6:R3-12:R3|PEPTIDE1,PEPTIDE1,7:R3-20:R3|PEPTIDE1,PEPTIDE1,1:R1-22:R2$$$V2.0)	43.3	–	> 85
CC[C@H](C)[C@@H]1NC(=O)[C@H](CC(=O)O)NC(=O)[C@@H]2CCCN2C(=O)[C@H](CC(N)=O)NC(=O)[C@H](CC(N)=O)NC(=O)[C@H](C(C)C)NC(=O)[C@H](CO)NC(=O)[C@@H]2CSCSC[C@@H]3NC(=O)CNC(=O)[C@@H](N)CCC(=O)NCC[C@@H](C(N)=O)NC(=O)[C@H](CSSC[C@H](NC3=O)C(=O)N[C@@H](CN)C(=O)N[C@@H](Cc3cnc[nH]3)C(=O)N3CCC[C@H]3C(=O)N[C@@H](C)C(=O)N2)NC1=O (HELM PEPTIDE1{E.G.C.C.[NC[C@H](N[*:1])C(=O)[*:2]].H.P.A.C.S.V.N.N.P.D.I.C.[Dab].[am]}|CHEM1{[C([*:1])[*:2]]}$PEPTIDE1,PEPTIDE1,1:R3-18:R3|PEPTIDE1,CHEM1,3:R3-1:R1|PEPTIDE1,CHEM1,9:R3-1:R2|PEPTIDE1,PEPTIDE1,4:R3-17:R3$$$V2.0)	–	< 5	–
CC[C@H](C)[C@@H]1NC(=O)[C@H](CC(=O)O)NC(=O)[C@@H]2CCCN2C(=O)[C@H](CC(N)=O)NC(=O)[C@H](CC(N)=O)NC(=O)[C@H](C(C)C)NC(=O)[C@H](CO)NC(=O)[C@@H]2CSSC[C@H](NC(=O)CN)C(=O)N[C@@H](CCC(=O)NCC[C@@H](C(N)=O)NC1=O)C(=O)N[C@@H](CN)C(=O)N[C@@H](Cc1cnc[nH]1)C(=O)N1CCC[C@H]1C(=O)N[C@@H](C)C(=O)N2 (HELM PEPTIDE1{G.C.E.[NC[C@H](N[*:1])C(=O)[*:2]].H.P.A.C.S.V.N.N.P.D.I.[Dab].[am]}$PEPTIDE1,PEPTIDE1,2:R3-8:R3|PEPTIDE1,PEPTIDE1,3:R3-16:R3$$$V2.0)	–	< 5	–
CC[C@H](C)[C@@H]1NC(=O)[C@H](CC(=O)O)NC(=O)[C@@H]2CCCN2C(=O)[C@H](CC(N)=O)NC(=O)[C@H](CC(N)=O)NC(=O)[C@H](C(C)C)NC(=O)[C@H](CO)NC(=O)[C@@H]2CSSC[C@H](NC(=O)CN)C(=O)N[C@@H](CCC(=O)NC[C@@H](C(N)=O)NC1=O)C(=O)N[C@@H](CN)C(=O)N[C@@H](Cc1cnc[nH]1)C(=O)N1CCC[C@H]1C(=O)N[C@@H](C)C(=O)N2 (HELM PEPTIDE1{G.C.E.[NC[C@H](N[*:1])C(=O)[*:2]].H.P.A.C.S.V.N.N.P.D.I.[O=C([C@H](CN[*:3])N[*:1])[*:2]].[am]}$PEPTIDE1,PEPTIDE1,2:R3-8:R3|PEPTIDE1,PEPTIDE1,3:R3-16:R3$$$V2.0)	57.3	–	–
CC[C@H](C)[C@@H]1NC(=O)[C@H](CC(=O)O)NC(=O)[C@@H]2CCCN2C(=O)[C@H](CC(N)=O)NC(=O)[C@H](CC(N)=O)NC(=O)[C@H](C(C)C)NC(=O)[C@H](CO)NC(=O)[C@@H]2CSSC[C@H](NC(=O)CN)C(=O)N[C@@H](CCNC(=O)C[C@@H](C(N)=O)NC1=O)C(=O)N[C@@H](CN)C(=O)N[C@@H](Cc1cnc[nH]1)C(=O)N1CCC[C@H]1C(=O)N[C@@H](C)C(=O)N2 (HELM PEPTIDE1{G.C.[Dab].[NC[C@H](N[*:1])C(=O)[*:2]].H.P.A.C.S.V.N.N.P.D.I.D.[am]}$PEPTIDE1,PEPTIDE1,2:R3-8:R3|PEPTIDE1,PEPTIDE1,3:R3-16:R3$$$V2.0)	–	< 5	–
CC[C@H](C)[C@@H]1NC(=O)[C@H](CC(=O)O)NC(=O)[C@@H]2CCCN2C(=O)[C@H](CC(N)=O)NC(=O)[C@H](CC(N)=O)NC(=O)[C@H](C(C)C)NC(=O)[C@H](CO)NC(=O)[C@@H]2CSSC[C@@H]3NC(=O)CNC(=O)[C@@H](N)CCNC(=O)C[C@@H](C(N)=O)NC(=O)[C@H](CSSC[C@H](NC3=O)C(=O)N[C@@H](CN)C(=O)N[C@@H](Cc3cnc[nH]3)C(=O)N3CCC[C@H]3C(=O)N[C@@H](C)C(=O)N2)NC1=O (HELM PEPTIDE1{[Dab].G.C.C.[NC[C@H](N[*:1])C(=O)[*:2]].H.P.A.C.S.V.N.N.P.D.I.C.D.[am]}$PEPTIDE1,PEPTIDE1,1:R3-18:R3|PEPTIDE1,PEPTIDE1,3:R3-9:R3|PEPTIDE1,PEPTIDE1,4:R3-17:R3$$$V2.0)	–	< 5	–
CC[C@H](C)[C@@H]1NC(=O)[C@H](CC(=O)O)NC(=O)[C@@H]2CCCN2C(=O)[C@H](CC(N)=O)NC(=O)[C@H](CC(N)=O)NC(=O)[C@H](C(C)C)NC(=O)[C@H](CO)NC(=O)[C@@H]2CSSC[C@@H]3NC(=O)CNC(=O)[C@@H](N)CCNC(=O)CC[C@@H](C(N)=O)NC(=O)[C@H](CSSC[C@H](NC3=O)C(=O)N[C@@H](CN)C(=O)N[C@@H](Cc3cnc[nH]3)C(=O)N3CCC[C@H]3C(=O)N[C@@H](C)C(=O)N2)NC1=O (HELM PEPTIDE1{[Dab].G.C.C.[NC[C@H](N[*:1])C(=O)[*:2]].H.P.A.C.S.V.N.N.P.D.I.C.E.[am]}$PEPTIDE1,PEPTIDE1,1:R3-18:R3|PEPTIDE1,PEPTIDE1,3:R3-9:R3|PEPTIDE1,PEPTIDE1,4:R3-17:R3$$$V2.0)	–	< 5	–

— ChEMBL document CHEMBL6074659, “Development of an Intravenously Stable Disulfide-Rich Peptide for the Treatment of Chemotherapy-Induced Neuropathic Pain” (J Med Chem, 2024)
